# According to ChEMBL document CHEMBL5149973, “Agaricus bisporus-Derived Glucosamine Hydrochloride Facilitates Skeletal Injury Repair through Bmp Signaling in Zebrafish Osteoporosis Model” (J Nat Prod, 2021):
# Activity calls are given as the source filed them. The calls are words filed in the database; no cut-off is given here.
# Assays:
# Danio rerio [1] = species on record: Danio rerio; experiment: Induction of Zebrafish embryo skeletal development assessed as increase in Smad5 gene expression level in head at 0.1 % measured for 0.75 to 24 hrs post fertilization by ISH analysis; type: functional, tissue-based; details: time 0.75-24 hrs
# Danio rerio [2] = species on record: Danio rerio; experiment: Induction of Zebrafish embryo skeletal development assessed as increase in Bmp2b mRNA expression level in gastrula stage at 0.05 to 0.1 % measured at 24 hrs post fertilization by ISH analysis; type: functional, tissue-based; details: dose 0.05-0.1 %
# [3] = Induction of Zebrafish embryo skeletal development assessed as mortality rate of embryo at 0.05 % measured after 72 hrs post fertilization by Alcian blue staining based assay; type: functional, Danio rerio
# [4] = Induction of Zebrafish embryo skeletal development assessed as fatality rate measured at percentage concentration incubated after 72 hrs post fertilization by Alcian blue staining based assay; type: functional, Danio rerio
# Danio rerio [5] = species on record: Danio rerio; experiment: Anti-osteoporosis activity in FAC-induced skeletal injury Zebrafish assessed as increase in cumulative bone optical density in caudal fins at 0.1 % measured for 10 day post fertilization; type: functional, organism-based
# [6] = Induction of Zebrafish embryo skeletal development assessed as mortality rate of embryo at 0.3 % measured after 72 hrs post fertilization by Alcian blue staining based assay; type: functional, Danio rerio
# Danio rerio [7] = species on record: Danio rerio; experiment: Induction of Zebrafish embryo skeletal development assessed as increase in Bmp7a mRNA expression level in gastrula stage at 0.05 to 0.1 % measured at 24 hrs post fertilization by ISH analysis; type: functional, tissue-based; details: dose 0.05-0.1 %
smiles,measurement,setting,value
Cl.N[C@@H]1[C@@H](O)[C@H](O)[C@@H](CO)O[C@H]1O,Activity,Danio rerio [1],Active
same,Activity,Danio rerio [2],Active
same,Activity,[3],16%
same,IC50,[4],0.324%
same,Activity,Danio rerio [5],Active
same,Activity,[6],28%
same,Activity,Danio rerio [7],Active
